Laboratory results from the supplement of paper PMC10307832.

What was measured:
Assay in all cases: relative viability (nuclei count vs DMSO), 5 days (fraction); higher = more cells survive
Linsitinib + Palbociclib = compound: C[C@]1(O)C[C@@H](c2nc(-c3ccc4ccc(-c5ccccc5)nc4c3)c3c(N)nccn32)C1 [Linsitinib] + CC(=O)c1c(C)c2cnc(Nc3ccc(N4CCNCC4)cn3)nc2n(C2CCCC2)c1=O [Palbociclib] (partner 0.5 µM)
Summary of the method: (§1)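 Values are medians from duplicate plates. Each reflects relative viability, defined as the nuclei count of treated wells over that of vehicle wells. Lung cancer cell lines in 1536-well plates were pin-tool dosed one day after seeding with one drug alone or with a fixed anchor-drug dose plus five library-drug doses (not always all listed) in √10 steps, then fixed, stained and imaged at 4× after 5 days.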

Ispinesib + Pemetrexed = compound: Cc1ccc(C(=O)N(CCCN)[C@@H](c2nc3cc(Cl)ccc3c(=O)n2Cc2ccccc2)C(C)C)cc1 [Ispinesib] + Nc1nc2[nH]cc(CCc3ccc(C(=O)N[C@@H](CCC(=O)O)C(=O)O)cc3)c2c(=O)[nH]1 [Pemetrexed] (partner 0.2 µM)
Summary of the method: as §1

Linsitinib + Foretinib = compound: C[C@]1(O)C[C@@H](c2nc(-c3ccc4ccc(-c5ccccc5)nc4c3)c3c(N)nccn32)C1 [Linsitinib] + COc1cc2c(Oc3ccc(NC(=O)C4(C(=O)Nc5ccc(F)cc5)CC4)cc3F)ccnc2cc1OCCCN1CCOCC1 [Foretinib] (partner 0.25 µM)
Summary of the method: as §1

Ispinesib + Linsitinib = compound: Cc1ccc(C(=O)N(CCCN)[C@@H](c2nc3cc(Cl)ccc3c(=O)n2Cc2ccccc2)C(C)C)cc1 [Ispinesib] + C[C@]1(O)C[C@@H](c2nc(-c3ccc4ccc(-c5ccccc5)nc4c3)c3c(N)nccn32)C1 [Linsitinib] (partner 1 µM)
Summary of the method: as §1

| Cell Line | relative viability (Linsitinib + Palbociclib; first compound 0.01 µM) | relative viability (Linsitinib + Palbociclib; first compound 0.03162 µM) | relative viability (Linsitinib + Palbociclib; first compound 0.1 µM) | relative viability (Linsitinib + Palbociclib; first compound 0.3162 µM) | relative viability (Linsitinib + Palbociclib; first compound 1 µM) | relative viability (Ispinesib + Pemetrexed; first compound 0.001 µM) | relative viability (Ispinesib + Pemetrexed; first compound 0.003162 µM) | relative viability (Ispinesib + Pemetrexed; first compound 0.01 µM) | relative viability (Ispinesib + Pemetrexed; first compound 0.03162 µM) | relative viability (Ispinesib + Pemetrexed; first compound 0.1 µM) | relative viability (Linsitinib + Foretinib; first compound 0.01 µM) | relative viability (Linsitinib + Foretinib; first compound 0.03162 µM) | relative viability (Linsitinib + Foretinib; first compound 0.1 µM) | relative viability (Linsitinib + Foretinib; first compound 0.3162 µM) | relative viability (Linsitinib + Foretinib; first compound 1 µM) | relative viability (Ispinesib + Linsitinib; first compound 0.001 µM) | relative viability (Ispinesib + Linsitinib; first compound 0.003162 µM) | relative viability (Ispinesib + Linsitinib; first compound 0.01 µM) | relative viability (Ispinesib + Linsitinib; first compound 0.03162 µM) | relative viability (Ispinesib + Linsitinib; first compound 0.1 µM) |
| --- | --- | --- | --- | --- | --- | --- | --- | --- | --- | --- | --- | --- | --- | --- | --- | --- | --- | --- | --- | --- |
| NCI-H1651 | 0.543 | 0.525 | 0.494 | 0.486 | 0.489 | 0.616 | 0.783 | 0.57 | 0.63 | 0.418 | 0.7 | 0.81 | 0.753 | 0.683 | 0.734 | 1.16 | 0.921 | 1.18 | 1.05 | 0.203 |
| NCI-H1666 | 0.626 | 0.565 | 0.656 | 0.526 | 0.604 | 0.89 | 0.786 | 0.883 | 0.91 | 0.817 | 0.94 | 1.05 | 0.933 | 0.758 | 0.852 | 1.05 | 0.907 | 0.833 | 0.767 | 0.408 |
| NCI-H1734 | 0.338 | 0.394 | 0.334 | 0.313 | 0.31 | 0.414 | 0.415 | 0.395 | 0.336 | 0.248 | 0.827 | 0.866 | 0.801 | 0.795 | 0.604 | 0.911 | 0.92 | 1 | 0.878 | 0.634 |
| NCI-H1755 | 0.475 | 0.48 | 0.467 | 0.345 | 0.444 | 0.486 | 0.439 | 0.435 | 0.496 | 0.325 | 0.864 | 0.892 | 0.956 | 0.865 | 0.8 | 1.03 | 1.1 | 1.14 | 0.906 | 0.422 |
| NCI-H1793 | 0.288 | 0.342 | 0.283 | 0.26 | 0.26 | 1.09 | 0.943 | 1.12 | 0.775 | 0.232 | 0.629 | 0.765 | 0.643 | 0.602 | 0.681 | 0.866 | 1.02 | 0.961 | 0.707 | 0.562 |
| NCI-H1915 | 0.514 | 0.595 | 0.473 | 0.489 | 0.307 | 0.518 | 0.528 | 0.516 | 0.294 | 0.113 | 1.13 | 1.08 | 1.08 | 0.986 | 0.923 | 1.13 | 1.24 | 1.08 | 1.12 | 1.03 |
| NCI-H1944 | 0.398 | 0.418 | 0.286 | 0.303 | 0.296 | 0.682 | 0.61 | 0.588 | 0.389 | 0.218 | 0.921 | 1.02 | 0.821 | 0.674 | 0.674 | 1.24 | 1.38 | 1.18 | 0.975 | 0.979 |
| NCI-H1975 | 0.571 | 0.588 | 0.517 | 0.429 | 0.39 | 0.328 | 0.327 | 0.322 | 0.277 | 0.155 | 0.848 | 0.869 | 0.87 | 0.87 | 0.781 | 1.01 | 0.946 | 1.06 | 0.508 | 0.189 |
| NCI-H1993 | 0.646 | 0.668 | 0.484 | 0.686 | 0.456 | 0.652 | 0.677 | 0.637 | 0.587 | 0.404 | 0.753 | 0.724 | 0.653 | 0.759 | 0.657 | 0.631 | 0.724 | 0.749 | 0.716 | 0.675 |
| NCI-H2009 | 0.119 | 0.203 | 0.19 | 0.105 | 0.24 | 1.13 | 1.06 | 1.03 | 0.936 | 0.44 | 1.25 | 1.18 | 1.26 | – | 1.24 | 1.28 | 1.18 | 1.29 | 0.957 | 0.475 |
| NCI-H2023 | 0.4 | 0.245 | 0.37 | 0.256 | 0.26 | 0.241 | 0.241 | 0.19 | 0.144 | 0.115 | 0.864 | 0.546 | 0.835 | 0.512 | 0.515 | 0.79 | 0.74 | 0.627 | 0.439 | 0.149 |
| NCI-H2085 | 0.434 | 0.465 | 0.493 | 0.445 | 0.478 | 0.946 | 0.905 | 0.943 | 0.917 | 0.361 | 0.883 | 0.889 | 0.931 | 0.891 | 0.898 | 0.954 | 1.01 | 0.904 | 0.777 | 0.605 |
| NCI-H2087 | 0.205 | 0.268 | 0.15 | 0.175 | 0.299 | 0.667 | 0.715 | 0.66 | 0.635 | 0.149 | 1 | 0.995 | 1.01 | 0.813 | 0.967 | 1.02 | 0.979 | 1.02 | 0.459 | 0.167 |
| NCI-H2126 | 0.345 | 0.365 | 0.347 | 0.352 | 0.334 | 0.672 | 0.669 | 0.768 | 0.647 | 0.303 | 1.11 | 1.28 | 1.05 | 1.06 | 1.06 | 0.732 | 0.739 | 0.749 | 0.701 | 0.775 |
| NCI-H2228 | 0.809 | 0.62 | 0.619 | 0.546 | 0.513 | 0.375 | 0.293 | 0.424 | 0.303 | 0.201 | 0.86 | 0.845 | 0.735 | 0.746 | 0.619 | 0.839 | 0.607 | 1 | 0.803 | 0.338 |
| NCI-H2347 | 0.372 | 0.498 | 0.468 | 0.34 | 0.399 | 0.47 | 0.432 | 0.433 | 0.41 | 0.425 | 0.838 | 0.874 | 0.741 | 0.892 | 0.967 | 1.01 | 1.04 | 1.13 | 0.805 | 0.913 |
